Experiments:
[1] = biological target: aurora B kinase (Homo sapiens, UniProt Q96GD4); assay: In vitro aurora B kinase inhibition test; format: biochemical; conditions: aurora B-INCENP enzyme; 33P-ATP filter assay, 60 minutes; read-out: IC50 (50% inhibition of enzyme activity), aurora B
Description: (b) In Vitro Aurora B Kinase Inhibition Test
This assay determines the ability of a test compound to inhibit serine-threonine kinase activity. DNA encoding aurora B may be obtained by total gene synthesis or by cloning. This DNA may then be expressed in a suitable expression system to obtain polypeptide with serine-threonine kinase activity. In the case of aurora B, the coding sequence was isolated from cDNA by polymerase chain reaction (PCR) and cloned into the pFastBac system in a manner similar to that described above for aurora A (i.e. to direct expression of a 6-histidine tagged aurora B protein).
For the large scale expression of aurora B kinase activity, Sf21 insect cells were grown at 28° C. in TC100 medium supplemented with 10% foetal calf serum (Viralex) and 0.2% F68 Pluronic (Sigma) on a Wheaton roller rig at 3 r.p.m. When the cell density reached 1.2×10^6 cells ml^−1 they were infected with plaque-pure aurora B recombinant virus at a multiplicity of infection of 1 and harvested 48 hours later. All subsequent purification steps were performed at 4° C. […]

[2] = system: phosphohistone H3 levels in drug-resistant MCF7-ADR human breast tumour cells; assay: In vitro drug-resistant cell phenotype and substrate phosphorylation assay (MCF7-ADR); format: cell-based; conditions: NCI/ADR-RES, 24 hours of treatment, read-out: EC50 for inhibition of phosphohistone H3 levels
Protocol: (d) In Vitro Drug-Resistant Cell Phenotype and Substrate Phosphorylation Assay.
This assay is used to determine the cellular effects of compounds on drug-resistant MCF7-ADR human breast tumour cells in vitro.
Compounds typically cause inhibition of levels of phosphohistone H3 and an increase in the nuclear area of treated cells.
0.8×10^4 MCF7-ADR cells per well were plated in 100 μl DMEM media (containing 10% FCS (foetal calf serum) and 1% glutamine) in costar 96 well plates and left overnight at 37° C. and 5% CO2 to adhere.
All other procedures are identical to those for the above assay using SW620 cells.
The compounds of the invention generally have EC50 values for inhibition of phosphohistone H3 levels of […], particularly 0.5 nM to 1 μM and more particularly 0.5 nM to 0.5 μM.

Chain of aurora B kinase (Q96GD4 whole entry): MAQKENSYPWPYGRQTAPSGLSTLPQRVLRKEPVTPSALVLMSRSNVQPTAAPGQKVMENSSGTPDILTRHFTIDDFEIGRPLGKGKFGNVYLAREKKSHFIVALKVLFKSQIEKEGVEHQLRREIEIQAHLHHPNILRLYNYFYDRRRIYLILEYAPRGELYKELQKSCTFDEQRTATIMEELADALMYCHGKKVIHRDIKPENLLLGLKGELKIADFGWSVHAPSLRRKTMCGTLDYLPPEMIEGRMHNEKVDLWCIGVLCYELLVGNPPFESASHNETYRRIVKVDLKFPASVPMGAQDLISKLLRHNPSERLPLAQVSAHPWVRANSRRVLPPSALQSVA
Chain of aurora B kinase (Q9NQS7 826-918 partner limits assumed): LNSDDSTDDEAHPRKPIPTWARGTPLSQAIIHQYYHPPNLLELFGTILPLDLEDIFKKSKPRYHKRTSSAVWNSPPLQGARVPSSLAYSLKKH

IC50 [1]	EC50 [2]	Structure (SMILES)
1.4 nM	20 nM	COc1cc(OC[C@H]2CCCCN2)c2c(Nc3cnn(CC(=O)Nc4cccc(F)c4F)c3)ncnc2c1 [compound 2, N-(2,3-difluorophenyl)-2-[4-({7-methoxy-5-[(2R)-piperidin-2-ylmethoxy]quinazolin-4-yl}amino)-1H-pyrazol-1-yl]acetamide]
–	120 nM	COc1cc(OC[C@H]2CCCN2)c2c(Nc3cnn(CC(=O)Nc4cccc(F)c4F)c3)ncnc2c1 [Prior art compound (I), reference compound]
1.4 nM	< 1 nM	CCOc1cc(OC[C@H]2CCCCN2)c2c(Nc3cnn(CC(=O)Nc4cccc(F)c4F)c3)ncnc2c1 [compound 1]
